Experimental data as given in patent publication US9630841B2, “Method for producing an aqueous stable chlorine dioxide solution” (A.P.F. AQUA SYSTEM AG, priority 2010, dated 2017).

Tests used:
[1] = Saturation limit of chlorine dioxide in water; assay type: physicochemical; settings: 5° C. and normal pressure
Source text: With the method according to the invention, chlorine dioxide solutions can be produced in any desired and/or suitable concentration. Preferably, aqueous solutions of up to about 2 wt %, preferably about 1 wt % of chlorine dioxide are produced with the method according to the invention. Chlorine dioxide solutions with higher concentrations are more difficult to obtain because of the limited solubility of chlorine dioxide in water, but they can nevertheless be realized. When using higher concentrations of chlorite for the production of the chlorine dioxide solutions according to the invention, in particular when using chlorite concentrations in the range of the saturation solubility of the corresponding chlorite salt, aqueous chlorine dioxide solutions with a concentration of up to about 4.5 wt % can be produced. The value of about 4.5 wt % represents the saturation limit of chlorine dioxide in water determined experimentally at 5° C. and normal pressure. With higher pressure, even free chlorine dioxide phases can be generated in water. […] This means that the solubility of chlorine dioxide is higher, the less foreign matter there is in the solution. […]

[2] = aqueous solution, 20° C.; cited from earlier work

Compound | saturation limit of chlorine dioxide in water [1] | saturation concentration [2]
[O][Cl+][O-] [chlorine dioxide] | about 4.5 wt % | –
O=S(=O)([O-])OOS(=O)(=O)[O-].[Na+].[Na+] [sodium peroxodisulfate] | – | about 54.5 wt %
